The record followed here is a melting point compilation (Tetko et al.; mined from patent text by program, amines drawn as free bases though some values may be those of a salt).

`COc1ccc(C2(c3ccc(OC)c(OC)c3)CCC(=O)O2)cc1OC` gave a melting point of 133 to 134 °C. The same measure for `COc1cc2c(cn1)CCCC2=NO`: 175 to 178 °C; for `CC(Cn1cnnn1)n1nnc2cc3c(=O)n(C)nnc3cc2c1=O` (stereo not given): 228 to 230 °C; for `C#CCN1C(=O)COc2cc(F)c(-n3nc4ccc(Cl)cn4c3=O)cc21`: 196 to 198 °C.

In turn, `C#CCn1nc(-c2ccc(SC)cc2)c(-c2ccc(F)cc2)c1C(F)(F)F` came in with a melting point of 136 to 138 °C.

In turn, `Cc1cccc(C(=O)n2nc(Nc3cccc(OCC(=O)NCCN4CCOCC4)c3)nc2N)c1` showed a melting point of 145 to 147 °C. To `Cc1ccc(OCc2ccccc2)c2cnn(Cc3ccccc3)c12` belongs 92 to 93 °C; to `CCOC(=O)c1ccc(OCCCCCCCCc2cc(C)no2)cc1`, 49 °C.

Take `COc1ccc(-n2cc(C#N)c(=O)[nH]c2=O)cc1`: the melting point lay in the range of 304 to 306 °C. `Cc1cc(SCC#Cc2cccc(C(F)(F)F)c2)ccc1OCC(=O)O` had a melting point of 81 to 82 °C. In turn, `CCN(CC)Cc1ccccc1Oc1ccc(-c2cn(C3CCOC3)c3ncnc(N)c23)cc1` (stereo not given) showed a melting point of 107 to 110 °C. The same measure for `CCc1cccc2c(C(=O)c3cccc(Cl)c3Cl)c(C)n(CCCS(=O)(=O)N(C)C)c12`: 18 °C. The same measure for `NC(=O)Cc1cn(-c2ccccc2)nc1-c1ccc(Cl)cc1`: 182 °C; for `COc1ccc2c(Cc3c(Cl)cncc3Cl)nnc(N(C)C)c2c1`: 170 to 173 °C. The same measure for `COc1ccc(-c2cc(=O)n(Cc3ccc(F)cc3)nc2-c2ccc(OC)cc2)cc1`: 132 to 133 °C; for `O=C(C1CC1)N1CC2CC2(c2ccccc2)C1` (stereo not given): 164 to 165 °C; for `CCCCS(=O)(=O)Nc1cccc(OCc2ccc3ccccc3n2)c1`: 105 to 106 °C. With `CC(C)(C)OC(=O)N1CC2C(CCC3(C)C(C(=O)O)CCC23)C2(C)CCC(=O)C=C12` (stereo not given), the melting point is 215 to 216 °C.

The compound `CCCCONc1ncn(-c2c(C)cccc2C)c(=O)n1` yielded a melting point of 144 to 145 °C. With `Cc1nc2c(N)nc3ccccc3c2n1CC(C)(C)OCCS(C)(=O)=O`, the melting point is 253 to 255 °C. To `CN(C(C)(C)CC(=O)Oc1ccccc1C(C)(C)C)S(=O)(=O)C(F)(F)F` belongs 42 to 44 °C; to `CN(NC(=O)OCc1ccccc1)C(=O)NCC(F)F`, 79 to 82 °C; to `CCOC(=O)C(=O)Nc1cccc(OC)c1C(N)=O`, 170 to 173 °C. On to `CC(=O)NC1(CCc2ccccc2)CCOC(=O)CC1` (stereo not given), for which the melting point was in the range of 165 to 167 °C. The same measure for `CCOC(=O)c1nccn1C1C(=O)c2ccccc2N1C(C)=O` (stereo not given): 210 °C; for `CC1(O)CCC2C3CCC4=CC(=O)CCC4C3C(=CF)CC21C` (stereo not given): 127 to 131 °C. The same measure for `CCOC(=O)C(=O)c1nsc(NC(=O)c2ccccc2)n1`: 178 to 180 °C; for `Cc1ccc(NC(=O)Nc2cnc3ccc(Cl)cc3c2-c2ccccc2)c(C)c1`: 230 to 231 °C. To `CC(=O)c1cccc(NC(=O)c2ccc3oc(COCc4ccccc4)cc3c2)c1O` belongs 92 to 94 °C. In the case of `CC(C)c1ccc(N(Cc2cnn(CC(F)(F)F)c2)C(=O)C2CCCc3c(O)cccc32)cn1` (stereo not given), the melting point was determined as 128 °C. To `CCCS(=O)(=O)Nc1cc(OC[C@@H](O)CNC2CCN(c3ccc(C(=O)OCC)cc3)CC2)ccc1O` belongs 63 to 65 °C; to `O=C1COC(Nc2ccc(C(O)(C(F)(F)F)C(F)(F)F)cc2)=N1`, 272 to 274 °C. `OC1CCCc2nc3ccccc3c(NCc3cccc(F)c3)c21` (stereo not given): the melting point is 128 °C.

In turn, `CCCCCCCCC(=O)N(C)Cc1ccc(C(=O)O)cc1` came in with a melting point of 79.5 to 81 °C. To `Cc1ccc2c(c1)[nH]c(=O)n2CCCN1CCC(C(=O)c2ccc(F)cc2)CC1` belongs 149 °C; to `Nc1nc2c(s1)CC(NC(=O)[C@@H]1CCCN1C(=O)CNC(c1ccccc1)(c1ccccc1)c1ccccc1)CC2` (stereo not given in full), 125 to 128 °C.

`C=CCc1c(OC)cc(C(=O)O)cc1OC`: the melting point was 56 to 57 °C. To `C=C(C)Cn1c(=O)n(C)c(=O)c2cc(Cc3ccc(OC)cc3)sc21` belongs 111 °C; to `Cc1cc(C(N)=O)ncc1C(c1c(F)ccc(F)c1F)S(=O)(=O)c1ccc(F)c(F)c1` (stereo not given), 200 to 201 °C. `Cn1c(C(=O)N2CCC[C@@H]3CCCC[C@H]32)cc2ccccc21` (relative stereo) showed a melting point of 87 to 90 °C. The same measure for `COC(=O)c1cc(C)c(C(=O)O)c(C)c1`: 191 to 192 °C; for `CCN1CCN(S(=O)(=O)c2ccc(C(CC3CCCC3)C(=O)Nc3nc4ccc(OC)nc4s3)cc2)CC1` (stereo not given): 106 to 110 °C; for `COc1ccnc(CCc2nc3cc(-c4ccc(S(N)(=O)=O)cc4)cnc3[nH]2)c1`: 216 to 218 °C. The same measure for `Cc1cc2c(cc1Br)C(=O)CC(C)(C)O2`: 95 to 96 °C; for `CCCN(CCCNc1ncc(Cc2ccc3c(c2)OCO3)c(=O)[nH]1)c1ccccn1`: 86 to 92 °C.

For the compound `COC(=O)CC1CC(CCc2c(-c3ccc(F)cc3)c(-c3ccccc3)c(C(=O)Nc3ccc(C(=O)OC)cn3)n2C(C)C)OC(C)(C)O1` (stereo not given), the melting point lay in the range of 77 to 84 °C. Compound `COC(OCCc1nc(C(C)C)c(Sc2cc(Cl)cc(Cl)c2)n1C)(c1ccccc1)c1ccccc1` had a melting point of 107 to 108 °C. The same measure for `O=C(O)c1cccc(NC(=O)c2sc3c([N+](=O)[O-])c(O)c(O)cc3c2Cl)c1`: 293 to 294 °C. To `COC(=O)c1cc(I)cn1[Si](C(C)C)(C(C)C)C(C)C` belongs 81 to 83 °C.

Consider `CC(=O)Nc1c(C(=O)c2ncccc2C)[nH]c2cc(Cl)ccc12`, for which the melting point was in the range of 173 to 175 °C.
